Assay results reported in patent US4868195A, “Novel enolamides, pharmaceutical compositions and methods of use thereof for activity as modulators of the arachidonic acid cascade” (Warner-Lambert Company, priority 1988, dated 1989).
Several values for one entry are separate records, joined by “and”; a condition that tells them apart may be missing. Identical values can stand only once.

What follows are compounds tested against T1, leukotriene receptor (guinea pig lung membranes) (Cavia porcellus, UniProt Q2NNR5) (assay: Binding of ^3 H-Leukotriene D4 to Guinea Pig Lung Membranes (RBL)). Conditions: 0.2 nM ^3 H-LTD4, 60 min, 25° C.; read-out: Concentration (M) for 50.0 % Inhibition, IC (RBL).
T1 construct: 20 mg original tissue wet weight of guinea pig lung; tissue Kuiper Rabbit Farm, Gary, IN (animals); host or cells: guinea pig lung, crude membranes
T1 sequence (Q2NNR5 1-340): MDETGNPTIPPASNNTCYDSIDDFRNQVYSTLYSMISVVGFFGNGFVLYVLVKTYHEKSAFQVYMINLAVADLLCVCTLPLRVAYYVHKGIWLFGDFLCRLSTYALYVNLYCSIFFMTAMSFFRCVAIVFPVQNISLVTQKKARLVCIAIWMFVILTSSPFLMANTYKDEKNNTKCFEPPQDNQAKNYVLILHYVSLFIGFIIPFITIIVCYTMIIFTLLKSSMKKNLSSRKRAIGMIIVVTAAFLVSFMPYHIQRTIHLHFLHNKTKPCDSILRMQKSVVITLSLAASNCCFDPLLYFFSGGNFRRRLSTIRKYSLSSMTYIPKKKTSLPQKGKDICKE
Protocol: Additionally, the activity, of the compounds having the Formula I of the present invention is determined by the well known leukotriene receptor binding assay that is described by R. F. Bruns, W. J. Thomsen and T. A. Pugsley in Life Sciences, 33, 645 (1983) or the Herxheimer in vivo antiallergy test described in H. Herxheimer, J. Physiol. (London), Vol. 177, p. 251 (1952).
Binding of ^3 H-Leukotriene D4 to Guinea Pig Lung Membranes (RBL)
[14,15-^3 H]leukotriene D4 (^3 H-LTD4) (25 Ci/mmol and 40 Ci/mmol) is purchased from New England Nuclear. Unlabeled LTC4 is a gift of Ono Pharmaceuticals (Japan). LTC4, LTD4, and LTE4 are purchased as methyl esters from Paesel GmbH (Frankfurt, W. Germany). Concentrations of the Paesel leukotrienes are calculated from their absorbance at 280 nm. Leukotriene esters are saponified overnight under N2 in 3.3% potassium carbonate at room temperature. Tritiated leukotrienes are stored as received from New England Nuclear at -20° C. Ono LTC4 (5 μg/ml) is stored at -60° C. in phosphate buffer pH 6.8. Saponified Paesel leukotrienes are stored at -60° C. in 3.3% potassium carbonate (pH 9.0-9.5). Aliquots of leukotrienes are taken from stock solutions immediately after thawing, after which the stock solutions are immediately refrozen. 2-Amino-2-(hydroxymethyl)-1,3-propanediol (Tris) is Sigma pH 7.7 pre-set crystals, and dimethylsulfoxide is Aldrich Gold Label.
Preparation of crude lung membranes
Two pairs of lungs (1.3 g) from freshly sacrificed 300 g male guinea pigs (older animals gave substantially lower binding) from Kuiper Rabbit Farm, Gary, IN are disrupted with a Polytron PT 10 (setting 4) for 30 seconds in 20 ml ice-cold 50 mM Tris adjusted with HCl to pH 7.7 at 25° C. (Tris buffer), filtered through a single layer of gauze to remove connective tissue, and centrifuged at 50,000 xg for ten min. The pellet is resuspended by homogenization with a Polytron in 20 ml Tris buffer, centrifuged at 50,000 xg for ten min., resuspended, incubated at 37° C. for 30 minutes, and centrifuged again. The final pellet is resuspended in Tris buffer and either used fresh or stored at -70° C.
All incubations are in triplicate for 60 minutes at 25° C. in 12×75 mm polystyrene tubes containing 1 ml Tris buffer with 20 mg original tissue wet weight of guinea pig lung nmembranes, 0.2 nM ^3 H-LTD4 (6,000-11,000 cpm), 10 mM MgCl2, and 1% dimethylsulfoxide Leukotrienes are diluted in Tris buffer. All other test compounds dissolved at 10 mM in dimethylsulfoxide on the same day as the experiment, and diluted in dimethylsulfoxide to 100× the final incubation concentration. Control incubations receive an equal volume (10 μl) of dimethylsulfoxide; the resulting concentration of dimethylsulfoxide had no effect on binding. ^3 H-LTD4 is diluted to 2 nM in Tris buffer. The membrane suspension (20 mg/0.89 ml) contains sufficient MgCl2 to give 10 mM final concentration in the incubation. […] All additions are performed at 0° C. Immediately after the last addition, the incubation is initiated by agitating the rack of tubes on a vortex mixer and warming to 25° C. in a water bath. Tubes are vortexed at least once more during the incubation to ensure that the membranes remained suspended. Incubations are terminated after 60 minutes by filtering under reduced pressure through 25 mm Whatman GF/B filters followed by rapid washing three times with 4 ml of ice-cold Tris buffer. Filters are added to scintillation vials with 8 ml Formula 947 (New England Nuclear), left overnight, shaken, and the radioactivity counted in a scintillation counter (efficiency 40%). Nonspecific binding, defined as binding of ^3 H-LTD4 in the presence of 100 nM LTC4, is 300-500 cpm for all lots of ^3 H-LTD4. Binding to the filters in the absence of tissue is about 100 cpm, and is not affected by unlabeled LTC4. Specific binding, defined as total binding minus nonspecific binding, varied considerably from lot to lot of ^3 H-LTD4. […]

| Compound | IC50 |
| --- | --- |
| COc1cccc(CCc2ccc(NC(=O)C3=C(O)c4ccccc4S(=O)(=O)C3)cc2)c1OC [Example 28, N-[4-[2-(2,3-Dimethoxyphenyl)ethyl]phenyl]-4-hydroxy-2H-1-benzothiopyran-3-carboxamide, 1,1-dioxide] | 5e-05 M and 3.56e-05 M |
| O=C(Nc1ccc(CCc2cccc(O)c2O)cc1)C1CS(=O)(=O)c2ccccc2C1=O (centres unmarked) [Example 29, N-[4-[2-(2,3-Dihydroxyphenyl)ethyl]phenyl]-3,4-dihydro-4-oxo-2H-1-benzothiopyran-3-carboxamide, 1,1-dioxide] | 3.92e-05 M |
| O=C(Nc1ccc(CCc2ccc(O)cc2O)cc1)C1=C(O)c2ccccc2S(=O)(=O)C1 [Example 31, N-[4-[2-(2,4-Dihydroxyphenyl)ethyl]phenyl]-4-hydroxy-2H-1-benzothiopyran-3-carboxamide, 1,1-dioxide] | 5.2e-05 M |
| COc1ccc(OC)c(CCc2ccc(NC(=O)C3=C(O)c4ccccc4S(=O)(=O)C3)cc2)c1 [Example 32, N-[4-[2-(2,5-Dimethoxyphenyl)ethyl]phenyl]-4-hydroxy-2H-1-benzothiopyran-3-carboxamide, 1,1-dioxide] | 2.35e-05 M |
| COc1cc(CCc2ccc(NC(=O)C3=C(O)c4ccccc4S(=O)(=O)C3)cc2)cc(OC)c1OC [Example 35] | 4.23e-05 M |
| O=C(Nc1ccc(CCc2cccc(C(F)(F)F)c2)cc1)C1=C(O)c2ccccc2S(=O)(=O)C1 [Example 62, N-[4-[2-(3-Trifluoromethylphenyl)ethyl]phenyl]-4-hydroxy-2H-1-benzothiopyran-3-carboxamide, 1,1-dioxide] | 1e-05 M and 5.95e-06 M and 4.98e-06 M |
| O=C(Nc1ccc(CCc2cc(C(F)(F)F)cc(C(F)(F)F)c2)cc1)C1=C(O)c2ccccc2S(=O)(=O)C1 [Example 63, N-[4-[2-[3,5-bis-Trifluoromethyl(phenyl)]ethyl]phenyl]-4-hydroxy-2H-1-benzothiopyran-3-carboxamide, 1,1-dioxide] | 4.42e-06 M and 3.11e-06 M |
| Nc1ccc(C=Cc2ccc(NC(=O)C3CS(=O)(=O)c4ccccc4C3=O)cc2)cc1 (centres unmarked) [Example 66, 2H-1-Benzothiopyran-3-carboxamide, N-[4-[2-(4-aminophenyl)ethenyl]phenyl]-3,4-dihydro-4-oxo-, 1,1-dioxide] | 3.15e-05 M |
| O=C(Nc1ccc(CCc2ccc(Cl)c(Cl)c2)cc1)c1sc2ccccc2c1O [Example 144] | 5e-06 M and 6.43e-06 M and 3.28e-06 M |
| O=C(Nc1ccc(CCc2cc(C(F)(F)F)cc(C(F)(F)F)c2)cc1)c1sc2ccccc2c1O [Example 148, Benzo[b]thiophene-2-carboxamide, N-[4-[2-[3,5-bis(trifluoromethyl)phenyl]ethyl]phenyl]-3-hydroxy] | 0.0001 M |

More lines, in order of falling IC50, values ahead:

| IC50 | Compound |
| --- | --- |
| 2.26e-05 M | COc1ccc(CCc2ccc(NC(=O)C3=C(O)c4ccccc4S(=O)(=O)C3)cc2)c(OC)c1 [Example 30, N-[4-[2-(2,4-Dimethoxyphenyl)ethyl]phenyl]-4-hydroxy-2H-1-benzothiopyran-3-carboxamide, 1,1-dioxide] |
| 2.04e-05 M | O=C(Nc1ccc(CCc2ccc(Cl)c(Cl)c2)cc1)C(=O)C1=C(O)c2ccccc2S(=O)(=O)C1 [Example 69, 2H-1-Benzothiopyran-3-acetamide, N-[4-[2-(3,4-dichlorophenyl)ethyl]phenyl]-4-hydroxy-α-oxo-, 1,1-dioxide] |
| 1.58e-05 M | COc1cc(CCc2ccc(NC(=O)C3=C(O)c4ccccc4S(=O)(=O)C3)cc2)cc(OC)c1 [Example 34, N-[4-[2-(3,5-Dimethoxyphenyl)ethyl]phenyl]-4-hydroxy-2H-1-benzothiopyran-3-carboxamide, 1,1-dioxide] |
| 5.96e-06 M | CC(C)(C)c1cc(CCc2ccc(NC(=O)C3=C(O)c4ccccc4S(=O)(=O)C3)cc2)cc(C(C)(C)C)c1O [Example 77, 2H-1-Benzothiopyran-3-carboxamide, N-[4-[2-[3,5-bis(1,1-dimethylethyl)-4-hydroxyphenyl]ethyl]phenyl]-4-hydroxy-, 1,1-dioxide] |
| 5.58e-06 M | O=C(Nc1ccc(CCc2ccc(Oc3ccccc3)cc2)cc1)C1=C(O)c2ccccc2S(=O)(=O)C1 [Example 75, 2H-1-Benzothiopyran-3-carboxamide, 4-hydroxy-N-[4-[2-(4-phenoxyphenyl)ethyl]phenyl]-, 1,1-dioxide] |
| 4.99e-06 M | O=C(Nc1ccc(CCc2cccc(Cl)c2)cc1)C1=C(O)c2ccccc2S(=O)(=O)C1 [Example 68, 2H-1-Benzothiopyran-3-carboxamide, N-[4-[2-(3-chlorophenyl)ethyl]phenyl]-4-hydroxy-, 1,1-dioxide] |
| 4.4e-06 M | COc1ccc(CCc2ccc(NC(=O)C(=O)c3sc4ccccc4c3O)cc2)cc1OC [Example 131, N-[4-[2-(3,4-Dimethoxyphenyl)ethyl]phenyl]-3-hydroxy-α-oxo-benzo[b]thiophene-2-acetamide] |
